Target: T1, human CPT1A (Homo sapiens, UniProt P50416)
T1 construct: made in house; host or cells: Saccharomyces cerevisiae (pESC-trp) or cultured mammalian cells (pCDNA3.1); mitochondrial extract
T1 sequence (P50416 1-773): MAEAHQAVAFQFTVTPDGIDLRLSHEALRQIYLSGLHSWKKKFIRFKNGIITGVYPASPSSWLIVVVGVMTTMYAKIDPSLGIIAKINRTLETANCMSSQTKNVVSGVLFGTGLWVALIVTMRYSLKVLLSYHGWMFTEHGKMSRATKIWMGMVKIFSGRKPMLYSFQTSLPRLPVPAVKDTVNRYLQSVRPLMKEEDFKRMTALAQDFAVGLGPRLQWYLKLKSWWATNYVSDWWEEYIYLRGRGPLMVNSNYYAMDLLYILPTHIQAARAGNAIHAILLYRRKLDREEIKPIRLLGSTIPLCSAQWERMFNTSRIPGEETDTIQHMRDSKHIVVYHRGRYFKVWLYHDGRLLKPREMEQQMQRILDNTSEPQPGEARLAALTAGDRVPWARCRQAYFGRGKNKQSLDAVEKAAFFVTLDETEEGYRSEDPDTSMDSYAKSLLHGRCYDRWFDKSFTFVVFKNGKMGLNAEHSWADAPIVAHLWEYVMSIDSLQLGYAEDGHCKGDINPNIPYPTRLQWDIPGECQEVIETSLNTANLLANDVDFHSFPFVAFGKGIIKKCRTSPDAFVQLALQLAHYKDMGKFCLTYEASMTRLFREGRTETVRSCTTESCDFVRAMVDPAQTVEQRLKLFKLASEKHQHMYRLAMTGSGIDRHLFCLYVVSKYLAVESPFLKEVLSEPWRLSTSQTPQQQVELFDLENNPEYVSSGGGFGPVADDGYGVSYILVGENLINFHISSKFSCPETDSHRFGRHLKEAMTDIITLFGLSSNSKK
Experiment: Human CPT1A LC/MS assay
Assay type: biochemical
Conditions: human CPT1A LC/MS assay, dose response format
Procedure, shortened: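 Mitochondrial extracts (1.6 μg protein) expressing human CPT1A, preincubated 10 min with compound in 20% DMSO, then reacted 10 min at room temperature with 20 μM palmitoyl-CoA, 50 μM L-carnitine (pH 7.5). Palmitoyl carnitine was quantified by LC/MS against a myristoyl carnitine standard; 16-point, 2-fold titrations gave dose response.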

Structure (SMILES)	IC50
CCCCCCCCCCCCc1ccc(NS(=O)(=O)N[C@H](CC(=O)O)C[N+](C)(C)C)cc1 [Example S89, (R)-3-(N-(4-dodecylphenyl)sulfamoylamino)-4-(trimethylammonio)-butanoate]	≤ 1 µM
CCCCCCCCCCc1ccc(S(=O)(=O)N[C@H](CC(=O)O)C[N+](C)(C)C)cc1 [Example S75, (R)-3-carboxy-2-(4-decylphenylsulfonamido)-N,N,N-trimethylpropan-1-aminium 2,2,2-trifluoroacetate]	1 to 10 µM
CCCCCCCCCCCCCCc1ccc(NS(=O)(=O)N[C@H](CC(=O)O)C[N+](C)(C)C)cc1 [Example S90, (R)-3-(N-(4-tetradecylphenyl)sulfamoylamino)-4-(trimethylammonio)-butanoate]	≤ 1 µM
CCCCCCCCc1ccc(NC(=O)N[C@H](CC(=O)[O-])C[N+](C)(C)C)cc1 [Example S7, (R)-3-(3-(4-octylphenyl)ureido)-4-(trimethylammonio)butanoate]	1 to 10 µM
CCCCCCCCCCOc1ccc(C(=O)N[C@H](CC(=O)O)C[N+](C)(C)C)cc1 [Example S63, (R)-3-(4-(decyloxy)benzamido)-4-(trimethylammonio)butanoate 2,2,2-trifluoroacetate]	≤ 1 µM
CCCCCCCCCCOc1cccc(C(=O)N[C@H](CC(=O)[O-])C[N+](C)(C)C)c1 [Example S67, (R)-3-(3-(decyloxy)benzamido)-4-(trimethylammonio)butanoate]	10 to 100 µM
CCCCCCCCCCc1ccc(C(=O)N[C@H](CC(=O)[O-])C[N+](C)(C)C)cc1 [Example S66, (R)-3-(4-decylbenzamido)-4-(trimethylammonio)butanoate]	≤ 1 µM
CCCCCCCOc1ccc(NC(=O)N[C@H](CC(=O)[O-])C[N+](C)(C)C)cc1 [Example S10, (R)-3-(3-(4-(heptyloxy)phenyl)ureido)-4-(trimethylammonio)butanoate]	10 to 100 µM

Reference: patent US8410150B2, “Inhibitors of carnitine palmitoyltransferase and treating cancer” (University Health Network, priority 2007, dated 2013)
